Laboratory results published in US5981576A, “(Methylsulfonyl)phenyl-2-(5H)-furanones as COX-2 inhibitors” (Merck Frosst Canada, Inc., priority 1998, dated 1999).

Columns and labels:
COX-1 [1] = target: T1, COX-1 (Homo sapiens, UniProt P23219); experiment: Human whole blood assay, COX-1 (clotting-induced TxB2 production); format: cell-based; details: Table III, read-out: COX-1 (IC50) HWB
Source text: (§1) As well, platelets in whole blood contain a large amount of the COX-1 enzyme. Immediately following blood clotting, platelets are activated through a thrombin-mediated mechanism. […] Therefore, the degree of selectivity by the test compound can be determined by measuring the levels of PGE2 after LPS induction (COX-2) and TxB2 following blood clotting (COX-1) in the same assay.
B. COX-1 (Clotting-induced TxB2 production)
Fresh blood is collected into vacutainers containing no anticoagulants. Aliquots of 500 μL are immediately transferred to siliconized microcentrifuge tubes preloaded with 2 μL of either DMSO or a test compound at final concentrations varying from 10 nM to 30 μM. The tubes are vortexed and incubated at 37° C. for 1 hour to allow blood to clot. At the end of incubation, serum is obtained by centrifugation (12,000×g for 5 min.). A 100 μL aliquot of serum is mixed with 400 μL of methanol for protein precipitation.

COX-1 [2] = target: T1, COX-1; experiment: biochemical; format: biochemical; details: Table III; U937
Experimental: Compounds are tested as inhibitors of cyclooxygenase activity in whole cell cyclooxygenase assays. Both of these assays measure prostaglandin E2 synthesis in response to arachidonic acid, using a radioimmunoassay. Cells used for these assays are human osteosarcoma 143 cells (which specifically express COX-2) and human U-937 cells (which specifically express COX-1). In these assays, 100% activity is defined as the difference between prostaglandin E2 synthesis in the absence and presence of arachidonate.
U 937 cells are pelleted by centrifugation at 500×g for 5 min and washed once with phosphate-buffered saline and repelleted. Cells are resuspended in homogenization buffer consisting of 0.1 M Tris-HCl, pH 7.4, 10 mM EDTA, 2 μg/ml leupeptin, 2 μg/ml soybean trypsin inhibitor, 2 μg/ml aprotinin and 1 mM phenyl methyl sulfonyl fluoride. The cell suspension is sonicated 4 times for 10 sec and is centrifuged at 10,000×g for 10 min at 4° C. The supernatant is centrifuged at 100,000×g for 1 hr at 4 ° C. The 100,000×g microsomal pellet is resuspended in 0.1 M Tris-HCl, pH 7.4, 10 mM EDTA to approximately 7 mg protein/ml and stored at -80° C.
Microsomal preparations are thawed immediately prior to use, subjected to a brief sonication, and then diluted to a protein concentration of 125 μg/ml in 0.1 M Tris-HCl buffer, pH 7.4 containing 10 mM EDTA, 0.5 mM phenol, 1 mM reduced glutathione and 1 μM hematin. Assays are performed in duplicate in a final volume of 250 μl. Initially, 5 μd of DMSO vehicle or drug in DMSO are added to 20 μl of 0.1 M Tris-HCl buffer, pH 7.4 containing 10 mM EDTA in wells of a 96-deepwell polypropylene titre plate. 200 μl of the microsomal preparation are then added and pre-incubated for 15 min at room temperature before addition of 25 μl of […] in 0.1 M Tris-HCl and 10 mM EDTA, pH 7.4. […] Cyclooxygenase activity is defined as the difference between PGE2 levels in samples incubated in the presence of arachidonic acid and ethanol vehicle.

COX-2 [3] = target: T2, COX-2 (Homo sapiens, UniProt P35354); experiment: biochemical; details: Table IV; purified human COX-2; read-out: COX-2 (IC50, μM) TMPD
T2 sequence (P35354 18-604): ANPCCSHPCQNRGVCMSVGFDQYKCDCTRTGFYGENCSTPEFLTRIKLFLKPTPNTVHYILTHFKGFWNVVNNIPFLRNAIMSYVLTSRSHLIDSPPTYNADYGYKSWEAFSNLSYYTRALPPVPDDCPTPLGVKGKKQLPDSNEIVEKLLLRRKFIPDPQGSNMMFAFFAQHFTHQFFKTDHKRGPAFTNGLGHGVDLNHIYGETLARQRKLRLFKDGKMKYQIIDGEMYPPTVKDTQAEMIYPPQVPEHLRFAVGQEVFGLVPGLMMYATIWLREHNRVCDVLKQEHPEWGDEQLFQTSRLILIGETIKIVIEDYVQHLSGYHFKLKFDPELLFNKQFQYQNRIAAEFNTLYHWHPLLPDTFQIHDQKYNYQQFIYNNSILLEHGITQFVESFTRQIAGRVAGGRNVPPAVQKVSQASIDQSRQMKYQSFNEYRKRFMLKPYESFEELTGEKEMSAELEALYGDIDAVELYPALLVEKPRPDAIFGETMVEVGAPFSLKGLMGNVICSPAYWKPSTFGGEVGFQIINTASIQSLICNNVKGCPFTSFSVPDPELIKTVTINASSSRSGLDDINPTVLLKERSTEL
Experimental: Assay of the activity of purified human COX-2
The assay mixture (180 μL) contains 100 mM sodium phosphate, pH 6.5, 2 mM genapol X-100, 1 μM hematin, 1 mg/ml gelatin, 80-100 units of purified enzyme (One unit of enzyme is defined as the amount of enzyme required to produce an O.D. change of 0.001/min at 610 nm) and 4 μL of the test compound in DMSO. The mixture is pre-incubated at room temperature (22° C.) for 15 minutes prior to initiation of the enzymatic reaction by the addition of 20 μL of a sonicated solution of 1 mM arachidonic acid (AA) and 1 mM TMPD in assay buffer (without enzyme or hematin). The enzymatic activity is measured by estimation of the initial velocity of TMPD oxidation over the first 36 sec of the reaction. […] IC50 values are derived from 4-parameter least squares non-linear regression analysis of the log-dose vs % inhibition plot.

COX-2 [4] = target: T2, COX-2; experiment: cell-based; details: Table IV; human whole blood, LPS-induced PGE2; read-out: COX-2 (IC50, μM) HWB
Source text: as §1
A. COX-2 (LPS-induced PGF, production)
Fresh blood is collected in heparinized tubes by venipuncture from both male and female volunteers. The subjects have no apparent inflammatory conditions and have not taken any NSAIDs for at least 7 days prior to blood collection. Plasma is immediately obtained from a 2 mL blood aliquot to use as blank (basal levels of PGE2).

COX-2 [5] = target: T2, COX-2; experiment: cell-based; details: Table IV; CHO[hCOX-2] cells, 10 μM AA
Experimental: Chinese hamster ovary (CHO) cell lines which have been stably transfected with an eukaryotic expression vector pCDNAIII containing either the human COX-1 or COX-2 cDNA's are used for the assay. These cell lines are referred to as CHO [hCOX-1] and CHO [hCOX-2], respectively. […] Cells (0.3×10^6 cells in 200 μl) are preincubated with 3 μl of the test drug or DMSO vehicle for 15 min at 37° C. […] Cells are then challenged in the presence or absence of drug with the AA/HBSS solution to yield a final concentration of 0.5 μM AA in the CHO[hCOX-1] assay and a final concentration of 10 μM AA in the CHO[hCOX-2] assay. […] The samples are centrifuged at 300×g at 4° C. for 10 min, and an aliquot of the clarified supernatant is appropriately diluted for the determination of PGE2 levels using an enzyme-linked immunoassay for PGE2 (Correlate PGE2 enzyme immunoassay kit, Assay Designs, Inc.). Cyclooxygenase activity in the absence of test compounds is determined as the difference in PGE2 levels of cells challenged with arachidonic acid versus the PGE2 levels in cells mock-challenged with ethanol vehicle. Inhibition of PGE2 synthesis by test compounds is calculated as a percentage of the activity in the presence of drug versus the activity in the positive control samples.

Rat Paw Edema = experiment: Rat paw edema assay (carrageenan); format: in vivo, Male Sprague-Dawley rats; details: 3 h, Table IV, po
Experimental: Male Sprague-Dawley rats (150-200 g) are fasted overnight and are given, po, either vehicle (1% methocel or 5% Tween 80) or a test compound. One hr later, a line is drawn using a permanent marker at the level above the ankle in one hind paw to define the area of the paw to be monitored. The paw volume (V0) is measured using a plethysmometer (Ugo-Basile, Italy) based on the principle of water displacement. […] The animals are sacrificed by CO2 asphyxiation and the absence or presence of stomach lesions scored. Data is compared with the vehicle-control values and percent inhibition calculated. All treatment groups are coded to eliminate observer bias.

T1 sequence (P23219 24-599): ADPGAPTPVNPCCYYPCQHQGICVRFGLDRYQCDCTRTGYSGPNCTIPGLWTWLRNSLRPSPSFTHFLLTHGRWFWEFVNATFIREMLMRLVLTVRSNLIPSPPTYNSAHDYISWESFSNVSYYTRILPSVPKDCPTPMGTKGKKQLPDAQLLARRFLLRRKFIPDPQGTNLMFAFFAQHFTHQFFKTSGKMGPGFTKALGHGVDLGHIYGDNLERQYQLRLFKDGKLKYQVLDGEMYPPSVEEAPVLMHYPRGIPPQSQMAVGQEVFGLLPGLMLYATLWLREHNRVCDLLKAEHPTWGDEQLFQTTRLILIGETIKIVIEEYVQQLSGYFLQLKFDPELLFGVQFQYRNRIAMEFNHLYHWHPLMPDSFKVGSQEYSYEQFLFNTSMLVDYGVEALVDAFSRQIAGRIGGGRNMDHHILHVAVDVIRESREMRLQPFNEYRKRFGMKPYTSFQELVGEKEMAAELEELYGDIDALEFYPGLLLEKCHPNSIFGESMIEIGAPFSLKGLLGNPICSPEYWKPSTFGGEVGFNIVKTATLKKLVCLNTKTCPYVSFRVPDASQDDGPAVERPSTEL

| Structure (SMILES) | IC50 (COX-1 [1]) | IC50 (COX-1 [2]) | IC50 (COX-2 [3]) | IC50 (COX-2 [4]) | IC50 (COX-2 [5]) | ED50 (Rat Paw Edema) |
| --- | --- | --- | --- | --- | --- | --- |
| CC1(C)OC(=O)C(Oc2ccc(F)c(F)c2)=C1c1ccc(S(C)(=O)=O)cc1 [Example 1, 3-(3,4-Difluorophenoxy)-5,5-dimethyl-4-(4-(methylsulfonyl)phenyl)-5H-furan-2-one] | 9.2 µM | 0.99 µM |  |  |  |  |
| CC1(C)OC(=O)C(OC2CCCCC2)=C1c1ccc(S(C)(=O)=O)cc1 [Example 14, 3-Cyclohexyloxy-5,5-dimethyl-4-(4-(methylsulfonyl)phenyl)-5H-furan-2-one] | 58.3 µM | > 10 µM |  |  |  |  |
| COC1(C)OC(=O)C(Oc2ccc(F)c(F)c2)=C1c1ccc(S(C)(=O)=O)cc1 (stereo not shown) [Example 24c, 3-(3,4-Difluorophenoxy)-5-methoxy-5-methyl-4-(4-(methylsulfonyl)phenyl)-5H-furan-2-one] | 25.3 µM | > 3 µM |  |  |  |  |
| CC1(C)OC(=O)C(Oc2cncc(Cl)c2)=C1c1ccc(S(C)(=O)=O)cc1 [Example 49, 3-(3-Chloro-5-pyridiloxy)-5,5-dimethyl-4-(4-(methylsulfonyl)phenyl)-5H-furan-2-one] |  |  | 7.8 µM | 0.61 µM | 0.2 µM |  |
| CC[C@@]1(C)OC(=O)C(Oc2ccc(F)cn2)=C1c1ccc(S(C)(=O)=O)cc1 [Example 162, (5R)-3-(5-Fluoro-2-pyridyloxy)-5-ethyl-5-methyl-4-(4-methylsulfonyl)-phenyl-5H-furan-2-one] |  |  | 8 µM | 0.62 µM | 0.06 µM |  |
| C[C@]1(CC(F)(F)F)OC(=O)C(Oc2ccc(F)cc2)=C1c1ccc(S(C)(=O)=O)cc1 [Example 166, (5R)-3-(4-fluorophenoxy)-5-methyl-4-(4-methylsulfonyl)phenyl-5-(2,2,2-trifluoroethyl)-5H-furan-2-one] |  |  |  |  |  | 4.9 mg/kg |
